Experimental data published in publication PMC9666555, “Genuine selective caspase-2 inhibition with new irreversible small peptidomimetics” (Cell Death & Disease, 2022).
“And” between values parts separate entries of the source, which are not always exact repeats. Equal entries are not always repeated. Where two headings read alike, the source gives them in different places. Each block holds one compound with its values, some of them ahead of it. Residues, ends and D or L forms follow the SMILES beside them. *: point of attachment. X1 = O=C(O)CC(N*)C(=O)COc1c(F)cccc1F; Quinaldoyl = O=C(c1ccc2ccccc2n1)*; Cbz = O=C(OCc1ccccc1)*; CH2F = FC*

What was measured:
[1] = target: T1, human active recombinant Caspase-3 (Homo sapiens, UniProt P42574); experiment: In vitro caspase activity and inhibition assay (IC50), Caspase-3; format: biochemical
T1 sequence (P42574 29-175 limits assumed): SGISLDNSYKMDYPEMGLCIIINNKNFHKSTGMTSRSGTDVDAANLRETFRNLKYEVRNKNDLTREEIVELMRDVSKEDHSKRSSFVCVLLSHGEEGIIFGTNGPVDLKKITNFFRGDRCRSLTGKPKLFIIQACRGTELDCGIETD
T1 sequence (P42574 176-277 limits assumed): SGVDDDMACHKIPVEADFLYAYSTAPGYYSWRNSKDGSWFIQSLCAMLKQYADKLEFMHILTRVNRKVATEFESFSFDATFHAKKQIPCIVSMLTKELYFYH
Method: The human active recombinant Caspase-3 (#707-C3) was purchased from R&D Systems (Minneapolis, USA). […] Stock solutions were stored at −80 °C. […] Caspase inhibitors were solubilized in DMSO at 10 mM and stored at −80 °C.
Initial velocity (V0) was determined from the linear portion of the progress curve. The composition of the activity buffer was: 20 mM HEPES, pH 7.4; 0.1% CHAPS, 5 mM DTT, 2 mM EDTA; 800 mM sodium succinate for Caspase-2 (0.2 nM) with 25 µM of Ac-VDVAD-7-amino-3-methylcoumarin (AMC) and 20 mM HEPES, pH 7.4; 0.1% CHAPS, 5 mM DTT, 2 mM EDTA; supplemented with 1 mg/mL of stabilizing agent bovine serum albumin (BSA) for Caspase-3 (0.1 nM) with 10 μM of Ac-DEVD-AMC. Compounds (0.001–100 µM) were tested in duplicate for each inhibitor concentration to detect their inhibitory potential. Enzymes and compounds were incubated for 30 min before initiating enzymatic reaction by adding substrate. Initial rates determined in control experiments (V0) were considered as 100% of the caspase activity; initial rates that were below 100% in the presence of tested compound (Vi) were considered as inhibition. The inhibitory activity of compounds was expressed as IC50 (Inhibitor concentration giving 50% inhibition). The values of IC50 were calculated by fitting the experimental data using Mars data Analysis 2.0 and KaleidaGraph software.1 %Inhibition=1001−Vi/V0=100I0/IC50+I0

[2] = target: T2, recombinant human Casp3 (Homo sapiens, UniProt P42574); experiment: Enzyme mechanistic studies (Ki, k3, k3/KI), Caspase-3; format: biochemical
T2 sequence (P42574 29-175 limits assumed): T1 sequence (P42574 29-175 limits assumed)
T2 sequence (P42574 176-277 limits assumed): T1 sequence (P42574 176-277 limits assumed)
Method: (§1) For reversible inhibitors, the mechanisms of inhibition were determined by varying substrate and inhibitor concentrations and using Lineweaver−Burk representations to determine the inhibition constants Ki of competitive inhibitors (Ki = [E][I]/[EI]). For suicide inhibitors, inactivation can be represented by the minimum kinetic scheme (Eq. 2), where E and I are the free forms of enzyme and inhibitor, E * I a kinetic chimera of the Michaelis complex and E − I the covalent complex (inactivated enzyme).2 E+I⇄KIE*I→k3E−I
(§2) KI and k3 are the kinetic constants characterizing the inactivation process and the k3/KI ratio is an index of the inhibitory potency. The first-order rate constant, k3, and the apparent dissociation constant, KI, were determined for Caspase-2 and -3 using the progress curve method. Briefly, the enzyme activities were measured continuously for 120 min. To determine the kinetic parameters, progress curves were obtained at several inhibition concentrations using fixed substrate concentration. The product released for each inhibitor concentration was plotted versus the time following Eq. 3 where the constant π depended on [I]’, a modified inhibitor concentration due to substrate competition, according to Eq. 4. [I]’ is defined by Eq. 5, where KM was Michaelis constant for the enzymatic hydrolysis of the appropriate fluorogenic substrate. The ratio k3/KI was obtained by fitting the experimental data to the equations (F.U., fluorescence unit):3 F.U.=∫0tvidt+F.U0−vo×e^−π×t/π+F.U.0 4 π=k3×[I]^′/KI+[I]^′ 5 [I]^′=[I]/1+S/KM
Linear and nonlinear regression fits of the experimental data to the equations were performed with KaleidaGraph software.

[3] = target: T3, human active recombinant caspase-2 (Homo sapiens, UniProt P42575); experiment: In vitro caspase activity and inhibition assay (IC50), Caspase-2; format: biochemical
T3 sequence (P42575 170-325 limits assumed): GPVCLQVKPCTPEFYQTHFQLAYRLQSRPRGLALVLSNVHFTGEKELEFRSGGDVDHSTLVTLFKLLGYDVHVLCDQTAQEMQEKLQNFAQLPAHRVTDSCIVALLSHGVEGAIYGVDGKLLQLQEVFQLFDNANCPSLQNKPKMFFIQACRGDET
T3 sequence (P42575 348-452 limits assumed): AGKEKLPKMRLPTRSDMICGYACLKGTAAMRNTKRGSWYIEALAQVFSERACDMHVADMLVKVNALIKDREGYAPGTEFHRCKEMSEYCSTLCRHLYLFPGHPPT
Method: Stock solutions were stored at −80 °C.

[4] = target: T4, recombinant human Casp2 (Homo sapiens, UniProt P42575); experiment: Enzyme mechanistic studies (Ki, k3, k3/KI), Caspase-2; format: biochemical; conditions: for Ki ratio (Casp3/Casp2): reversible inhibitors
T4 sequence (P42575 170-325 limits assumed): T3 sequence (P42575 170-325 limits assumed)
T4 sequence (P42575 348-452 limits assumed): T3 sequence (P42575 348-452 limits assumed)
Method: as §1, §2
Linear and nonlinear regression fits of the experimental data to the equations were performed with KaleidaGraph software. The experimental conditions were [Caspase-2]0 = 0.2 nM, [Ac-VDVAD-AMC]0 = 25 µM and [Caspase-3]0 = 0.1 nM, [Ac-DEVD-AMC]0 = 10 µM; [I]0 = 0–100 µM.

[5] = test system: Swiss mice hippocampal neurons; experiment: Aβ oligomer-induced dendritic spine loss in hippocampal primary cultures; format: cell-based, mouse; conditions: 100 nM, 6 h of exposure
Method: For the monoculture model (MBBT4 devices), 20 × 10^3 hippocampal neurons were seeded in each chamber. For the compartmentalized coculture model (neuronal diode in MBBT5 devices), 40 × 10^3 cortical cells and 15 × 10^3 hippocampal cells were seeded in each input chamber and output chamber, respectively. The culture medium was renewed every 5 days. Microfluidic chips were placed in Petri dishes containing 0.1% EDTA (Sigma) and incubated at 37 °C in a 5% CO2 atmosphere. In the neuronal diodes, cortical axons entered the microchannels and reached the hippocampi chamber in around 4–5 days. In both the monoculture and coculture systems, cells were cultured for 3 weeks to allow high dendrites and synapse density and intense electrical firing.
Cells were treated with caspase inhibitors and/or Aβ1–42 at 20 days in vitro. For the hippocampal monocultures, the culture medium was removed and replaced by fresh medium optionally containing 10 nM Aβ1–42 oligomers or monomers, with or without caspase inhibitors. After 6 h, cells were fixed, permeabilized, and subjected to immunolabelling. For cortico-hippocampal compartmentalized cocultures, the medium of the input chamber (cortical) was replaced by fresh medium optionally containing 100 nM Aβ1–42 oligomers or monomers, whereas the medium of the output (hippocampal) chamber was replaced by fresh medium optionally containing, or not, caspases inhibitors. […]
Immunostaining was performed directly in microfluidic chambers as described [38]. […] Images were analyzed using ImageJ software (NIH, Bethesda, MD, USA).
Synaptic disconnection was assessed as described [39] with slight modifications. Briefly, in hippocampal monocultures, synaptic disconnection was assessed through fluorescence microscopy by counting phalloidin clusters affixed to MAP2 and Bassoon. In cortico-hippocampal compartmentalized cocultures, synaptic disconnection was assessed by counting α-Synuclein presynaptic clusters affixed to MAP2-positive hippocampal dendrites. […] The images were similarly processed with ImageJ software before being used for quantification: the brightness/contrast of all control images were optimized manually to eliminate the background and to maximize the signal. The means of the minimum and maximum intensities were then calculated in the control condition and these settings were applied to all images. The brightness/contrast of all images was optimized manually to eliminate the background and maximize the intensity of the signal. α-synuclein/ MAP2 and Phalloidin/MAP2/Bassoon merges were then used for quantification. The number of spines was determined by counting individual clusters along ten dendritic regions (100 µm length each) in three independent experiments for every epitope. Only synapses detected on or near the neurites were included for analysis.

[6] = test system: HeLa cells; experiment: Vincristine-induced HeLa cell death (propidium iodide, flow cytometry); format: cell-based, human; conditions: 1 h pretreatment, 20 nM vincristine 44 h; for inhibition of vincristine-induced cell death: inhibitor 30 µM; for effect against vincristine-induced cell death: indicated doses
Method: HeLa cells (obtained from ATCC) were cultured in Dulbecco’s Modified Eagle Medium (DMEM, High Glucose, GlutaMAX™, Pyruvate) supplemented with antibiotics and 10% fetal calf serum (FCS) (Gibco, Life Technologies) and maintained in T75 Flasks at 1 × 10^6 cells per flask. Twenty-four hours before treatments, HeLa cells were transferred to 6-well plates (8 × 10^4 cells/well). The lymphoblastoid cell line Molt4cl8 was a gift from Dr. Bernard Krust (Inserm, University Paris 5) and was cultured in RPMI 1640 Glutamax medium supplemented with Hepes, antibiotics, and 10% FCS. HEK293 cells were obtained from ATCC (CRL-1573) and cultured in DMEM with Glutamax and 25 mM glucose (Life Technologies) supplemented with 10% FCS and antibiotics. For cell death induction, the following agents were added to cell cultures: Vincristine (Sigma) and Panobistat (LBH589; Selleck). Cell death was analyzed using fluorescence microscopy (Axio-observer Z1, Zeiss; equipped with CCD camera CoolsnapHQ2, Ropert Scientific) and cytofluorometry (MACSQuant® VYB; Miltenyi Biotec, Bergisch Gladbach, Germany) after labeling with propidium iodide (1 µg/mL; 10 min; 37 °C; Life Technologies) and Hoechst 33342 (1 µg/mL; 5 min; RT; Sigma).
Fig. 2 q33 and h33 are protective against the cytocidal effect of Vincristine. a Vincristine induces HeLa cell death. Cells were incubated for 44 h at 37 °C with 20 nM Vincristine (VCR), then incubated with propidium iodide at 2 μg/mL for 10 min and analyzed by flow cytometry to quantify plasma membrane permeabilization. Histograms show fluorescence intensity detected by flow cytometry (one representative experiment) in the presence (VCR) or Absence (Co.) of Vincristine. % of propidium iodide-positive cells are indicated for both conditions. b Dose–response of Vincristine-induced cell death. HeLa cells were incubated and treated as in (a) with the indicated doses of Vincristine (VCR) and analyzed by flow cytometry. […] Representative fluorescence microscopy micrographs of cells treated for 44 h with 20 nM vincristine (VCR) or not (Co.) and stained with Hoechst 33342. Vincristine induces progressive nuclear changes with first condensed nuclei (arrows) and then apoptotic bodies (dashed arrow). d Broad-spectrum irreversible caspase inhibitors prevent vincristine-induced cell death. HeLa cells were pretreated for 1 hr with the indicated broad-spectrum irreversible caspases inhibitors (z-VAD(OMe)-fmk at 30 μM, Q-VD-OPh 30 μM, Emricasan 10 μM, or the negative control Q-VE-OPh 30 μM), then treated with vincristine as in panel (a), and analyzed by flow cytometry. Histograms show the mean ± SD of 3 independent experiments (***p value < 0.001). e Effect of the reversible Caspase-2 inhibitors q33 and h33 against vincristine-induced cell death. HeLa cells were pretreated for 1 h with the indicated doses of q33 or h33, then treated with vincristine as in panel a, and analyzed by flow cytometry. Histograms show the mean ± SD of three independent experiments (*p value < 0.1). TEXT PRINTED IN THE PICTURE: (a) VCR: 39,5 % DOUBTS OF THE COPYIST ABOUT THIS PICTURE: Panel a: the picture prints no measure beside "39,5 %" and "4.1%". I assigned 39,5 % to VCR only because it stands by the grey VCR peak. / Panel a: "4.1%" seems to belong to the untreated control (Co.). That is not a substance, so it is left out.
Fig. 5 LJ2 inhibits cell death induced by microtubule destabilization and hydroxamic acid-based deacetylase (HDAC) inhibition. a Effect of the irreversible Caspase-2 inhibitors LJ2 against vincristine-induced cell death. HeLa cells were pretreated for 1 h with the indicated doses of LJ2, Q-VD-OPh, or Q-LETD-OPh, then treated with vincristine (VCR) as in Fig. 2, then incubated with propidium iodide at 2 μg/mL for 10 min and analyzed by flow cytometry. Histogram data are mean ± SD (n = 3, *p value < 0.01). b Effect of Caspases-inhibitors against Panobistat (LBH589)-induced cell death. […]

[7] = test system: Casp2-S1P-SREBP2 activation pathway in HEK 293 cells; experiment: Casp2-dependent S1P cleavage and SREBP2 activation in transfected HEK 293 cells (WB); conditions: 10 µM, 16 h
Method: To test SREBP processing, HEK 293 (ATCC® CRL-1573) cells were plated at a density of 0.5 × 10^5 per well (6-well plates). The next day, 1 μg of each cDNAs were transfected using lipofectamine 3000 (Thermo Fisher Scientific, MA) according to the manufacturer’s instruction. cDNAs used were empty vector (EV), Casp2-HA, PIDD-Flag, RAIDD-His, Myc-S1P, and V5-SREBP2. After 4 h, cells were incubated in DMEM/F12 medium supplemented with indicated Casp2 inhibitors (10 μM) for 16 h. Whole-cell lysates were prepared in lysate buffer (150 mM Tris-HCl, pH 7.4, 10% sodium-deoxycholate, 100 mM NaCl, 100 mM EDTA, 100 mM PMSF, 200 mM NaF, 100 mM Na3VO4, and a mixture of protease inhibitors). […] Equal quantities of proteins were subjected to immunoblot (WB) analysis with anti-Flag (#F7425 Sigma-Aldrich), anti-HA (#1867431, Roche), anti-Casp2 (#ALX-804-356, 11B4, Enzo Life Sciences), anti-V5 monoclonal antibody (#13202, Cell Signaling Technology), anti-Casp3 (#9661, #9662, #9664, Cell Signaling Technologies), and anti-HSP90 (#sc-101494, Santa Cruz Technologies).
HEK 293 cells were transfected with indicated plasmids in order to overexpress SREBP2, S1P, RAIDD, PIDD1, and Casp-2. […] HEK 293 cells were transfected with the indicated plasmids. […] Then, whole cell extracts (WCL) were prepared and subjected to WB analysis to detect Casp2 (through HA tag), RAIDD (through 6HIS tag), and PIDD1, PIDD1-C, PIDD1-CC (through Flag tag).

[8] = reversible competitive inhibitors, Lineweaver-Burk, read-out: Enzyme assays Casp3 Ki (converted)
[9] = reversible competitive inhibitors, Lineweaver-Burk, read-out: Enzyme assays Casp2 Ki
[10] = irreversible inhibitors, progress curve method
[11] = 30 min preincubation, 0.1 nM Caspase-3, 10 µM Ac-DEVD-AMC, read-out: Enzyme assays Casp3 IC50 (converted)
[12] = 30 min preincubation, 0.2 nM Caspase-2, 25 µM Ac-VDVAD-AMC, read-out: Enzyme assays Casp2 IC50

Compound: CC(=O)NC(C(=O)NC(CC(=O)O)C(=O)NC(C(=O)N1CCC(c2ccccc2)C1C(=O)NC1CC(=O)OC1O)C(C)C)C(C)C (stereo not shown) [k33, reference compound]
IC50 [1]: 1.96 µM | Ki [2, 8]: 2.77 µM | IC50 [3]: 0.178 µM | Ki [4, 9]: 0.0905 µM

Compound: Aβ1–42 oligomers: oligomers of human β-amyloid1-42 peptide [reference compound]
decrease in spine density [5]: 50%

Compound: COC(=O)C[C@H](NC(=O)[C@H](C)NC(=O)[C@@H](NC(=O)OCc1ccccc1)C(C)C)C(=O)CF [z-VAD(Ome)-fmk] (Cbz-Val-Ala-Asp(OMe)-CH2F)
inhibition of vincristine-induced cell death [6]: more than 80%

Compound: CC(C)[C@H](NC(=O)c1ccc2ccccc2n1)C(=O)N[C@@H](CC(=O)O)C(=O)N[C@H](C(=O)N1CC[C@H](CC(C)(C)C)[C@H]1C(=O)NC(CC(=O)O)C(=O)COc1c(F)cccc1F)C(C)C (stereo partly shown) [LJ3b]
Casp3 k3 [2, 10]: 0.8 ± 6 × 10^−5 ms^−1 | Casp3 k3/KI [2, 10]: 9 M⁻¹ s⁻¹ | Ki ([2]; irreversible inhibitors, progress curve method, read-out: Casp3 KI): 84.2 µM | k3/Ki ratio against Casp2, times lower than the one of the a isomer (LJ2a or LJ3a) [4]: more than 2000 times | Casp2 k3/KI [4, 10]: 823 M⁻¹ s⁻¹ | Ki ([4]; irreversible inhibitors, progress curve method, read-out: Casp2 KI): 8.54 ± 0.3 µM

Compound: CC(=O)N[C@H](C(=O)N[C@@H](CC(=O)O)C(=O)N[C@H](C(=O)N1CC[C@@H](OC(C)C)[C@@H]1C(=O)N[C@H]1CC(=O)OC1O)C(C)C)C(C)C (stereo partly shown) [c33, reference compound]
IC50 [1]: 6.72 µM | Ki [2, 8]: 2.44 µM | IC50 [3]: 0.271 µM | Ki [4, 9]: 0.122 µM

IC50 [1, 11]: 2.54 µM | Ki [2, 8]: 2.37 µM | IC50 [3, 12]: 0.015 µM | Ki [4, 9]: 0.024 µM | Ki ratio (Casp3/Casp2) [4]: 94.5
Compound: CC(=O)N[C@H](C(=O)N[C@@H](CC(=O)O)C(=O)N[C@H](C(=O)N1CCc2ccc(C)cc2[C@@H]1C(=O)N[C@H]1CC(=O)OC1O)C(C)C)C(C)C (stereo partly shown) [q33, reference compound]
effect against vincristine-induced cell death [6]: showed cytoprotective effect

IC50 [1, 11]: 4.57 µM | Ki [2, 8]: 6.51 µM | IC50 [3, 12]: 0.011 µM | Ki [4, 9]: 0.0109 µM | Ki ratio (Casp3/Casp2) [4]: 597
Compound: CC(=O)N[C@H](C(=O)N[C@@H](CC(=O)O)C(=O)N[C@H](C(=O)N1CC[C@H](CC(C)(C)C)[C@@H]1C(=O)N[C@H]1CC(=O)OC1O)C(C)C)C(C)C (stereo partly shown) [h33, reference compound]
effect against vincristine-induced cell death [6]: showed cytoprotective effect

Compound: Q-LETD-OPh
effect against vincristine-induced cell death [6]: no effect

Compound: CC(C)C(NC(=O)c1ccc2ccccc2n1)C(=O)NC(CCC(=O)O)C(=O)COc1c(F)cccc1F (stereo not shown) [Q-VE-OPh]
inhibition of vincristine-induced cell death [6]: not

Compound: CC(C)[C@H](NC(=O)c1ccc2ccccc2n1)C(=O)N[C@@H](CC(=O)O)C(=O)N[C@H](C(=O)N[C@@H](C)C(=O)NC(CC(=O)O)C(=O)COc1c(F)cccc1F)C(C)C (stereo partly shown) [Δ2Me-TRP601, Quinolin-2-carbonyl-VDVAD-CH2-O(2,6F2)Ph, reference compound] (Quinaldoyl-VDVA-X1)
IC50 [1]: 0.00031 ± 1e-05 µM | Casp3 k3 [2, 10]: 1,85 ms^−1 | Casp3 k3/KI [2, 10]: 1 613 405 M^−1 s^−1 | KI (inactivation) [2, 10]: 0.00117 µM | S1P cleavage [7]: abolished | SREBP2 activation [7]: abolished | impact on RAIDD, PIDD1, and Casp2 expression [7]: no significant impact | Casp2 k3 [4, 10]: 8,08 ms^−1 | Casp2 k3/KI [4, 10]: ~ 1,586,020 M^−1 s^−1 and 1 586 020 M^−1 s^−1 | KI (inactivation) [4, 10]: 0.00549 µM
